In this assay the test system is BDF1 mice, colon carcinoma 38 sc, T/C %. Kind of assay: NCI In Vivo Anticancer Drug Screen. Data for tumor model Colon Carcinoma 38 (subcutaneous) in B6D2F1 (BDF1) mice. The gist of the method:
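Transplantable tumor in mice; compound-treated vs vehicle-dosed controls. Measured survival or tumor size; value = T ÷ C.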

[1] abbreviates: endpoint: median tumor weight (est.), dose: 12.5 mg/kg/injection, schedule: Q07DX002 (ip), vehicle: saline with Tween-80, higher = larger tumour.
The mark [2] stands for this setting: endpoint: median tumor weight (est.), dose: 25.0 mg/kg/injection, schedule: Q07DX002 (ip), vehicle: saline with Tween-80, higher = larger tumour.
[3] abbreviates: endpoint: median tumor weight (est.), dose: 50.0 mg/kg/injection, schedule: Q07DX002 (ip), vehicle: saline with Tween-80, higher = larger tumour.
Where [4] appears, read: endpoint: median tumor weight (est.), dose: 200.0 mg/kg/injection, schedule: Q07DX002 (ip), vehicle: saline with Tween-80, higher = larger tumour.
Where [5] appears, read: endpoint: median tumor weight (est.), dose: 400.0 mg/kg/injection, schedule: Q07DX002 (ip), vehicle: saline with Tween-80, higher = larger tumour.
[6] abbreviates: endpoint: median tumor weight (est.), dose: 3.0 mg/kg/injection, schedule: Q07DX002 (ip), vehicle: saline with Tween-80, higher = larger tumour.
Setting [7] is: endpoint: median tumor weight (est.), dose: 12.5 mg/kg/injection, schedule: Q07DX002 (ip), vehicle: saline, higher = larger tumour.
Setting [8] is: endpoint: median tumor weight (est.), dose: 25.0 mg/kg/injection, schedule: Q07DX002 (ip), vehicle: saline, higher = larger tumour.
[9] abbreviates: endpoint: median tumor weight (est.), dose: 50.0 mg/kg/injection, schedule: Q07DX002 (ip), vehicle: saline, higher = larger tumour.
Setting [10] is: endpoint: median tumor weight (est.), dose: 100.0 mg/kg/injection, schedule: Q07DX002 (ip), vehicle: saline, higher = larger tumour.
[11] abbreviates: endpoint: median tumor weight (est.), dose: 200.0 mg/kg/injection, schedule: Q07DX002 (ip), vehicle: saline, higher = larger tumour.

Our source for the T/C values is PubChem BioAssay AID212 (DTP/NCI, 2004).

Each structure is given as a SMILES string. “And” between values parts separate entries of the source, which are not always exact repeats. Identical values can stand only once. Results filed as inconclusive are left out.

Take `CCCCCCC/C=C/C(=O)OC1C(OC2C(OC(CCCCCCC)CC(=O)OC(CCCCCCC)CC(=O)O)OC(C)C(O)C2O)OC(C)C(O)C1O` (centres undefined): the T/C is, setting by setting: (endpoint: median tumor weight (est.), dose: 28.0 mg/kg/injection, schedule: Q07DX002 (ip), vehicle: Klucel (hydroxypropylcellulose) (HPC), higher = larger tumour) 79 % of control; (endpoint: median tumor weight (est.), dose: 112.0 mg/kg/injection, schedule: Q07DX002 (ip), vehicle: Klucel (hydroxypropylcellulose) (HPC), higher = larger tumour) 123 % of control; (endpoint: median tumor weight (est.), dose: 225.0 mg/kg/injection, schedule: Q07DX002 (ip), vehicle: Klucel (hydroxypropylcellulose) (HPC), higher = larger tumour) 42 % of control.

Turning to `c1ccc([P+](c2ccccc2)(c2ccccc2)c2ccccc2)cc1`, the T/C reads like this: (endpoint: median tumor weight (est.), dose: 0.75 mg/kg/injection, schedule: Q07DX002 (ip), vehicle: saline, higher = larger tumour) 91 % of control; (endpoint: median tumor weight (est.), dose: 0.75 mg/kg/injection, schedule: Q07DX003 (ip), vehicle: saline, higher = larger tumour) 84 % of control; (endpoint: median tumor weight (est.), dose: 1.5 mg/kg/injection, schedule: Q07DX002 (ip), vehicle: saline, higher = larger tumour) 95 % of control; (endpoint: median tumor weight (est.), dose: 1.5 mg/kg/injection, schedule: Q07DX003 (ip), vehicle: saline, higher = larger tumour) 83 % of control; (endpoint: median tumor weight (est.), dose: 3.0 mg/kg/injection, schedule: Q07DX002 (ip), vehicle: saline, higher = larger tumour) 77 % of control; (endpoint: median tumor weight (est.), dose: 3.0 mg/kg/injection, schedule: Q07DX003 (ip), vehicle: saline, higher = larger tumour) 69 % of control. Also, the T/C (endpoint: median tumor weight (est.), dose: 6.0 mg/kg/injection, schedule: Q07DX002 (ip), vehicle: saline, higher = larger tumour) was 112 % of control and the T/C (endpoint: median tumor weight (est.), dose: 6.0 mg/kg/injection, schedule: Q07DX003 (ip), vehicle: saline, higher = larger tumour) is 66 % of control.

As to `CC(=O)NC(CCc1ccc(Cl)c(Cl)c1)c1cccc(O)c(=O)c1` (centres undefined), the T/C is 161 % of control (endpoint: median tumor weight (est.), dose: 25.0 mg/kg/injection, schedule: Q07DX002 (ip), vehicle: Klucel (hydroxypropylcellulose) (HPC), higher = larger tumour); 109 % of control (endpoint: median tumor weight (est.), dose: 100.0 mg/kg/injection, schedule: Q07DX002 (ip), vehicle: Klucel (hydroxypropylcellulose) (HPC), higher = larger tumour); 122 % of control (endpoint: median tumor weight (est.), dose: 200.0 mg/kg/injection, schedule: Q07DX002 (ip), vehicle: Klucel (hydroxypropylcellulose) (HPC), higher = larger tumour).

Turning to `C/C(=N\NC(N)=O)c1cccc(/C(C)=N/NC(N)=O)n1`, the T/C by setting is: under setting [1], 87 % of control and 94 % of control; under setting [2], 66 % of control and 71 % of control; under setting [3], 73 % of control and 96 % of control; under setting [4], 96 % of control; under setting [5], 57 % of control.

Turning to `CNC(=O)OCc1c(COC(=O)NC)c(-c2ccc(Cl)c(Cl)c2)n2c1Cc1ccccc1C2`, the T/C (endpoint: median tumor weight (est.), dose: 50.0 mg/kg/injection, schedule: Q07DX002 (ip), vehicle: distilled water + Tween-80, higher = larger tumour) was 86 % of control; the T/C (endpoint: median tumor weight (est.), dose: 100.0 mg/kg/injection, schedule: Q07DX002 (ip), vehicle: distilled water + Tween-80, higher = larger tumour) is 81 % of control; the T/C (endpoint: median tumor weight (est.), dose: 200.0 mg/kg/injection, schedule: Q07DX002 (ip), vehicle: distilled water + Tween-80, higher = larger tumour) is 65 % of control.

For the compound `CNc1nc(NC)nc(NC)n1`, the T/C runs as follows: (endpoint: median tumor weight (est.), dose: 12.5 mg/kg/injection, schedule: Q07DX003 (ip), vehicle: Klucel (hydroxypropylcellulose) (HPC), higher = larger tumour) 105 % of control; (endpoint: median tumor weight (est.), dose: 50.0 mg/kg/injection, schedule: Q07DX003 (ip), vehicle: Klucel (hydroxypropylcellulose) (HPC), higher = larger tumour) 111 % of control; (endpoint: median tumor weight (est.), dose: 100.0 mg/kg/injection, schedule: Q07DX003 (ip), vehicle: Klucel (hydroxypropylcellulose) (HPC), higher = larger tumour) 109 % of control; (endpoint: median tumor weight (est.), dose: 200.0 mg/kg/injection, schedule: Q07DX003 (ip), vehicle: Klucel (hydroxypropylcellulose) (HPC), higher = larger tumour) 86 % of control.

Take `COP12(OCCO1)SC(C(F)(F)F)=C(C(F)(F)F)S2`: the T/C runs as follows: (endpoint: median tumor weight (est.), dose: 0.75 mg/kg/injection, schedule: Q07DX002 (ip), vehicle: saline with Tween-80, higher = larger tumour) 81 % of control; (endpoint: median tumor weight (est.), dose: 1.5 mg/kg/injection, schedule: Q07DX002 (ip), vehicle: saline with Tween-80, higher = larger tumour) 92 % of control; under setting [6], 84 % of control; (endpoint: median tumor weight (est.), dose: 6.0 mg/kg/injection, schedule: Q07DX002 (ip), vehicle: saline with Tween-80, higher = larger tumour) 83 % of control; (endpoint: median tumor weight (est.), dose: 12.0 mg/kg/injection, schedule: Q07DX002 (ip), vehicle: saline with Tween-80, higher = larger tumour) 75 % of control.

In the case of `OC1(CSc2ccccc2)CCCCC1`, the T/C was 93 % of control under setting [2]; 47 % of control under setting [3]; 97 % of control (endpoint: median tumor weight (est.), dose: 100.0 mg/kg/injection, schedule: Q07DX002 (ip), vehicle: saline with Tween-80, higher = larger tumour); 87 % of control under setting [4]; 77 % of control under setting [5].

Turning to `CN=C(N)N/N=C(\c1ccccc1)c1ccc(Br)cc1`, the T/C is, setting by setting: under setting [6], 152 % of control; (endpoint: median tumor weight (est.), dose: 6.25 mg/kg/injection, schedule: Q07DX002 (ip), vehicle: saline with Tween-80, higher = larger tumour) 169 % of control; under setting [1], 156 % of control; under setting [3], 96 % of control.

Regarding `CC1=C(/C=C/C(C)=C/C=C/C(C)=C/CO)C(C)(C)CCC1`, the T/C was 113 % of control and 106 % of control (endpoint: median tumor weight (est.), dose: 8.0 mg/kg/injection, schedule: Q07DX003 (ip), vehicle: saline with Tween-80, higher = larger tumour); 194 % of control (endpoint: median tumor weight (est.), dose: 32.0 mg/kg/injection, schedule: Q07DX003 (ip), vehicle: saline with Tween-80, higher = larger tumour); 111 % of control and 122 % of control (endpoint: median tumor weight (est.), dose: 64.0 mg/kg/injection, schedule: Q07DX003 (ip), vehicle: saline with Tween-80, higher = larger tumour).

For `O=C1C=CC(=O)O1` (tested in a mixture with another compound), the T/C is, setting by setting: under setting [7], 155 % of control; under setting [8], 106 % of control; under setting [9], 90 % of control; under setting [10], 100 % of control; under setting [11], 86 % of control; (endpoint: median tumor weight (est.), dose: 400.0 mg/kg/injection, schedule: Q07DX002 (ip), vehicle: saline, higher = larger tumour) 86 % of control.

With `COc1cccc2c1C(=O)c1c(O)c3c(c(O)c1C2=O)CC(O)(C(=O)CO)CC3OC1CC(N)C(O)C(C)O1` (centres undefined), the T/C (endpoint: median survival time, dose: 41.0 mg/kg/injection, schedule: Q07DX002 (iv), vehicle: saline, higher = longer survival) is 93 % of control; the T/C (endpoint: median survival time, dose: 64.0 mg/kg/injection, schedule: Q07DX002 (iv), vehicle: saline, higher = longer survival) was 104 % of control; the T/C (endpoint: median survival time, dose: 100.0 mg/kg/injection, schedule: Q07DX002 (iv), vehicle: saline, higher = longer survival) was 122 % of control; the T/C (endpoint: median survival time, dose: 155.0 mg/kg/injection, schedule: Q07DX002 (iv), vehicle: saline, higher = longer survival) was 124 % of control; the T/C (endpoint: median tumor weight (est.), dose: 6.25 mg/kg/injection, schedule: Q07DX002 (ip), vehicle: water, higher = larger tumour) is 110 % of control; the T/C (endpoint: median tumor weight (est.), dose: 12.5 mg/kg/injection, schedule: Q07DX002 (ip), vehicle: water, higher = larger tumour) was 100 % of control. For the same compound, the T/C by setting is: (endpoint: median tumor weight (est.), dose: 20.25 mg/kg/injection, schedule: Q07DX002 (ip), vehicle: saline, higher = larger tumour) 51 % of control; under setting [8], 81 % of control and 86 % of control; (endpoint: median tumor weight (est.), dose: 25.0 mg/kg/injection, schedule: Q07DX002 (ip), vehicle: water, higher = larger tumour) 100 % of control; (endpoint: median tumor weight (est.), dose: 40.5 mg/kg/injection, schedule: Q07DX002 (ip), vehicle: saline, higher = larger tumour) 123 % of control; (endpoint: median tumor weight (est.), dose: 81.0 mg/kg/injection, schedule: Q07DX002 (ip), vehicle: saline, higher = larger tumour) 52 % of control; (endpoint: median tumor weight (est.), dose: 81.0 mg/kg/injection, schedule: Q07DX002 (ip), vehicle: water, higher = larger tumour) 56 % of control. Also, the T/C (endpoint: median tumor weight (est.), dose: 100.0 mg/kg/injection, schedule: Q07DX002 (ip), vehicle: water, higher = larger tumour) was 83 % of control; the T/C (endpoint: median tumor weight (est.), dose: 162.0 mg/kg/injection, schedule: Q07DX002 (ip), vehicle: saline, higher = larger tumour) was 44 % of control; the T/C under setting [11] is 19 % of control; the T/C (endpoint: median tumor weight (est.), dose: 200.0 mg/kg/injection, schedule: Q07DX002 (ip), vehicle: water, higher = larger tumour) is 53 % of control; the T/C (endpoint: median tumor weight (est.), dose: 324.0 mg/kg/injection, schedule: Q07DX002 (ip), vehicle: saline, higher = larger tumour) was 14 % of control.

As for `O=C1C(O)=C(c2ccccc2)C(=O)C(O)=C1c1ccccc1`, the T/C reads like this: under setting [1], 103 % of control; under setting [7], 89 % of control; under setting [2], 111 % of control; under setting [8], 55 % of control; under setting [3], 86 % of control; under setting [9], 106 % of control. In addition, the T/C by setting is: under setting [10], 105 % of control; under setting [11], 102 % of control.
